The supplement of paper PMC4862054

Columns and labels:
Assay in all cases: normalised viability (% of control), CellTiter-Blue; higher = more viable cells (about 100 = DMSO control)
Details in all cases: incubation time: 72 h
BT-474 = tested on: BT-474
Procedure, shortened: (§1)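 Seeded at 20 µl suspension per well onto compound-loaded 384-well plates, breast cancer cell lines were incubated 72 h. CellTiter-Blue fluorescence at 560/590 nm was then read, with each plate normalised to vehicle (100) and a positive kill control (0). Normalised viability is reported at a single listed concentration of the series.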

BT-549 = tested on: BT-549
Procedure, shortened: as §1

CAL-120 = tested on: CAL-120
Procedure, shortened: as §1

CAL-148 = tested on: CAL-148
Procedure, shortened: as §1

CAL-51 = tested on: CAL-51
Procedure, shortened: as §1

CAL-85-1 = tested on: CAL-85-1
Procedure, shortened: as §1

DU-4475 = tested on: DU-4475
Procedure, shortened: as §1

HCC1143 = tested on: HCC1143
Procedure, shortened: as §1

HCC1599 = tested on: HCC1599
Procedure, shortened: as §1

HCC1937 = tested on: HCC1937
Procedure, shortened: as §1

HDQ-P1 = tested on: HDQ-P1
Procedure, shortened: as §1

Hs578T = tested on: Hs578T
Procedure, shortened: as §1

MDA-MB-231 = tested on: MDA-MB-231
Procedure, shortened: as §1

MDA-MB-436 = tested on: MDA-MB-436
Procedure, shortened: as §1

MDA-MB-453 = tested on: MDA-MB-453
Procedure, shortened: as §1

MFM-223 = tested on: MFM-223
Procedure, shortened: as §1

SK-BR-3 = tested on: SK-BR-3
Procedure, shortened: as §1

C[C@]12CC[C@@H]3c4ccc(OC(=O)N(CCCl)CCCl)cc4CC[C@H]3[C@@H]1CC[C@@H]2O [Estramustine]
normalised viability [%]
Details | 0.297 nM | 0.99 nM | 2.97 nM | 9.9 nM | 99 nM | 990 nM
BT-474 | – | 116 | – | – | 115 | 116
BT-549 | – | 82.7 | – | – | 89.6 | 87.2
CAL-51 | 88.7 | – | 86.3 | 86.7 | – | –
CAL-85-1 | 100 | – | 90.9 | 101 | – | –
CAL-120 | – | 113 | – | – | 107 | 105
CAL-148 | 118 | – | 101 | 106 | – | –
DU-4475 | 93.6 | – | 99.3 | 108 | – | –
HCC1143 | – | 109 | – | – | 106 | 114
HCC1599 | – | 89 | – | – | 76.9 | 98.3
HCC1937 | – | 88.9 | – | – | 75 | 92.2
HDQ-P1 | 107 | – | 106 | 109 | – | –
Hs578T | – | 113 | – | – | 100 | 98
MDA-MB-231 | – | 100 | – | – | 109 | 119
MDA-MB-436 | – | 95 | – | – | 96.1 | 99.4
MDA-MB-453 | 89.2 | – | 102 | 101 | – | –
MFM-223 | – | 101 | – | – | 98.3 | 103
SK-BR-3 | – | 99.1 | – | – | 97.5 | 101

C[C@]1(O)C[C@@H](c2nc(-c3ccc4ccc(-c5ccccc5)nc4c3)c3c(N)nccn32)C1 [OSI-906]
normalised viability [%]
Details | 3 nM | 10 nM | 30 nM | 100 nM | 1000 nM | 10000 nM
BT-474 | – | 102 | – | – | 91.5 | 78.4
BT-549 | – | 95.4 | – | – | 89.1 | 41.3
CAL-51 | 91.2 | – | 97.5 | 96.3 | – | –
CAL-85-1 | 97.3 | – | 85.7 | 86.4 | – | –
CAL-120 | – | 96.6 | – | – | 84.2 | 56.2
CAL-148 | 96.8 | – | 89.8 | 91.7 | – | –
DU-4475 | 92.7 | – | 104 | 88.8 | – | –
HCC1143 | – | 99.9 | – | – | 85.5 | 75.2
HCC1599 | – | 104 | – | – | 76.8 | 78.9
HCC1937 | – | 92.8 | – | – | 79.7 | 48.4
HDQ-P1 | 79.4 | – | 83.9 | 85.4 | – | –
Hs578T | – | 103 | – | – | 95.2 | 71.4
MDA-MB-231 | – | 84.4 | – | – | 79.7 | 74.3
MDA-MB-436 | – | 85.2 | – | – | 96 | 71.7
MDA-MB-453 | 97.9 | – | 92.9 | 78.6 | – | –
MFM-223 | – | 98.3 | – | – | 91.6 | 74.5
SK-BR-3 | – | 88.7 | – | – | 79.7 | 54.3

Nc1nc2[nH]cnc2c(=S)[nH]1 [Thioguanine]
normalised viability [%]
Details | 3 nM | 10 nM | 30 nM | 100 nM | 1000 nM | 10000 nM
BT-474 | – | 112 | – | – | 113 | 102
BT-549 | – | 94 | – | – | 106 | 49
CAL-51 | 114 | – | 109 | 109 | – | –
CAL-85-1 | 111 | – | 97.4 | 104 | – | –
CAL-120 | – | 94.1 | – | – | 67.2 | 34.9
CAL-148 | 105 | – | 116 | 102 | – | –
DU-4475 | 120 | – | 112 | 116 | – | –
HCC1143 | – | 92.6 | – | – | 103 | 82.9
HCC1599 | – | 111 | – | – | 77 | 103
HCC1937 | – | 76.3 | – | – | 86.1 | 40.4
HDQ-P1 | 117 | – | 127 | 101 | – | –
Hs578T | – | 137 | – | – | 96.4 | 32.9
MDA-MB-231 | – | 92.7 | – | – | 58.4 | 56
MDA-MB-436 | – | 104 | – | – | 74.5 | 65.6
MDA-MB-453 | 132 | – | 102 | 98.6 | – | –
MFM-223 | – | 89.4 | – | – | 88.6 | 82.2
SK-BR-3 | – | 99.7 | – | – | 103 | 49.6

CC(=O)c1c(C)c2cnc(Nc3ccc(N4CCNCC4)cn3)nc2n(C2CCCC2)c1=O
normalised viability [%]
Details | 3 nM | 10 nM | 30 nM | 100 nM | 1000 nM | 10000 nM
BT-474 | – | 108 | – | – | 105 | 67
BT-549 | – | 101 | – | – | 109 | 85.2
CAL-51 | 106 | – | 99.8 | 93.7 | – | –
CAL-85-1 | 96.2 | – | 102 | 91.4 | – | –
CAL-120 | – | 79.4 | – | – | 65.2 | 57.4
CAL-148 | 91 | – | 89.4 | 93.6 | – | –
DU-4475 | 104 | – | 99.7 | 105 | – | –
HCC1143 | – | 74.2 | – | – | 73.5 | 61.8
HCC1599 | – | 93.3 | – | – | 109 | 89.3
HCC1937 | – | 38.9 | – | – | 102 | 67.9
HDQ-P1 | 95.2 | – | 99.9 | 99.5 | – | –
Hs578T | – | 100 | – | – | 83.9 | 71.5
MDA-MB-231 | – | 97.6 | – | – | 57.7 | 41.2
MDA-MB-436 | – | 78.1 | – | – | 36.7 | 89.8
MDA-MB-453 | 112 | – | 104 | 79.1 | – | –
MFM-223 | – | 77.5 | – | – | 79.3 | 74
SK-BR-3 | – | 100 | – | – | 110 | 63.5

COc1cc2c(cc1O)CC[C@@H]1[C@@H]2CC[C@]2(C)[C@@H](O)CC[C@@H]12 [2-methoxyestradiol]
normalised viability [%]
Details | 3 nM | 10 nM | 30 nM | 100 nM | 1000 nM | 10000 nM
BT-474 | – | 133 | – | – | 64.3 | 48.5
BT-549 | – | 89.1 | – | – | 51.7 | 17.6
CAL-51 | 122 | – | 114 | 106 | – | –
CAL-85-1 | 91.4 | – | 85.5 | 94.5 | – | –
CAL-120 | – | 105 | – | – | 61.4 | 24.2
CAL-148 | 89.8 | – | 89.5 | 86 | – | –
DU-4475 | 108 | – | 102 | 109 | – | –
HCC1143 | – | 92.4 | – | – | 82.7 | 37.1
HCC1599 | – | 97.3 | – | – | 116 | 80.5
HCC1937 | – | 113 | – | – | 54.3 | 26.8
HDQ-P1 | 103 | – | 93.9 | 93.2 | – | –
Hs578T | – | 114 | – | – | 67.5 | 16.2
MDA-MB-231 | – | 83.9 | – | – | 44.8 | 30.5
MDA-MB-436 | – | 104 | – | – | 60.5 | 44.6
MDA-MB-453 | 114 | – | 87.5 | 96.7 | – | –
MFM-223 | – | 98.8 | – | – | 74.9 | 99.2
SK-BR-3 | – | 97.6 | – | – | 101 | 20.2
